# Patent US20110082130A1 (LIGAND PHARMACEUTICALS, INC., priority 2006, published 2011)
# Biological target: T1, chimeric human H3 receptor (Homo sapiens, UniProt Q9Y5N1)
# T1 construct: made in house; host or cells: Sf9 insect cells (baculovirus); P2 membrane preparation
# Assay: Chimeric human H3 receptor GTP binding assay (agonist-stimulated GTP-gamma35S binding, Example 7)
# Format: biochemical
# Text: This Example illustrates a representative assay for evaluating agonist-stimulated GTP-gamma^35S binding (“GTP binding”) activity. […] This agonist-stimulated GTP binding activity can also be used to detect partial agonism mediated by antagonist compounds. A compound analyzed in this assay is referred to herein as a “test compound.”
# Four independent baculoviral stocks (one directing the expression of the chimeric human H3 receptor and three directing the expression of each of the three subunits of a heterotrimeric G-protein) are used to infect a culture of Sf9 cells as described above. P2 membranes are prepared as described above, and agonist-stimulated GTP binding on the P2 membranes is assessed using histamine (Sigma Chemical Co., St. Louis, Mo.) as agonist in order to ascertain that the receptor/G-protein-alpha-beta-gamma combination(s) yield a functional response as measured by GTP binding. P2 membranes are resuspended by Dounce homogenization (tight pestle) in GTP binding assay buffer (50 mM Tris pH 7.4, 120 mM NaCl, 5 mM MgCl2, 2 mM EGTA, 1 mg/ml BSA, 0.2 mg/ml bacitracin, 0.02 mg/ml aprotinin, 0.01 mg/ml saponin, 10 μM GDP) and added to assay tubes at a concentration of 35 μg protein/reaction tube. After adding increasing doses of histamine at concentrations ranging from 10^−12 M to 10^−5 M, reactions are initiated by the addition of […] GTP-gamma^35S (PERKIN ELMER; Boston, Mass.) with a final assay volume of 0.20 ml. In competition experiments, non-radiolabeled test compounds are added to separate reactions at concentrations ranging from 10^−10 M to 10^−6 M along with 1 μM histamine to yield a final volume of 0.20 ml.
# Neutral antagonists are antagonists that are substantially free of inherent agonist activity, and include those test compounds that reduce the histamine-stimulated GTP binding activity towards, but not below, baseline levels. In contrast, in the absence of added histamine, inverse agonists reduce the GTP binding activity of the receptor-containing membranes below baseline.
# After a 60-min incubation at room temperature, reactions are terminated by vacuum filtration over WHATMAN GF/C filters (pre-soaked in wash buffer, 0.1% BSA) followed by washing with ice-cold wash buffer (50 mM Tris pH 7.4, 120 mM NaCl). The amount of receptor-bound (and thereby membrane-bound) GTP-gamma^35S is determined by measuring the filter-bound radioactivity, preferably by liquid scintillation spectrometry of the washed filters. Non-specific binding is determined in parallel assays including 10 μM unlabeled GTP-gammaS and typically represents less than 5 percent of total binding. Data is expressed as percent above basal (baseline). The results of GTP binding experiments are analyzed using SIGMAPLOT software (SPSS Inc., Chicago, Ill.). IC50 values are calculated by non-linear regression analysis of dose-response curves using Kaleidograph (Synergy Software, Reading, Pa.).
# Alternatively the data is analyzed as follows. First, the average bound radioactivity from negative control wells (no agonist) is subtracted from the bound radioactivity detected for each of the other experimental wells. Second, average bound radioactivity is calculated for the positive control wells (agonist wells). Then, percent inhibition for each compound tested is calculated using the equation:
# Calculated IC50 values are converted to K1 values by the Cheng-Prusoff correction (Cheng and Prusoff (1973) Biochem. Pharmacol. 22(23):3099-3108). Accordingly, the following equation: Ki=IC50/(1+[L]/EC50) is used, where [L] is the histamine concentration in the GTP binding assay, and EC50 is the concentration of histamine producing a 50% response, as determined by a dose-response analysis using concentrations of histamine ranging from 10^−10 M to 10^−6M. […]
# [1] = Table II, "*" = Ki in assay of Example 7 less than 1 micromolar
# T1 sequence (Q9Y5N1 with tags, fused parts or gaps): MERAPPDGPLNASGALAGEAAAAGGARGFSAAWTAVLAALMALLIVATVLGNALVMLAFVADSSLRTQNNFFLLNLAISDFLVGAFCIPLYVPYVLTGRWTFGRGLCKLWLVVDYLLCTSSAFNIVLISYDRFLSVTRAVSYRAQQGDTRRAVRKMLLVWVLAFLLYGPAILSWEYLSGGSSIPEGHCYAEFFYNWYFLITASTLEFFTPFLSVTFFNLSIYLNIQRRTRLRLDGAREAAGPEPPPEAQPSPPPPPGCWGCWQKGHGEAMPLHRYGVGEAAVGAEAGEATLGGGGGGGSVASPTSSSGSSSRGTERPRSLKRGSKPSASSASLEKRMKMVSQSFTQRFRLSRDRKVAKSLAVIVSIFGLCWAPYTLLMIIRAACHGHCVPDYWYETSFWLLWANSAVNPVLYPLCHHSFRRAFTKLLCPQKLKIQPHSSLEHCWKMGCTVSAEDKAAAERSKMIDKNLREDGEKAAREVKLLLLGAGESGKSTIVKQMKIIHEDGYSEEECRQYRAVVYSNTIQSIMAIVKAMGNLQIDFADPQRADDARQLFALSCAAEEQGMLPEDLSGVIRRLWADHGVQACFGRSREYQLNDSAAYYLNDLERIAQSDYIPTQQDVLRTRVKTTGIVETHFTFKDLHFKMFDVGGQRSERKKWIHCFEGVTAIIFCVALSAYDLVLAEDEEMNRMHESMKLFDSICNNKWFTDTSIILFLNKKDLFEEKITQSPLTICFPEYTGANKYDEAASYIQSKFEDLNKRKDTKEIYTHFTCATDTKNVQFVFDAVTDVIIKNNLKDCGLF
"Ki (Table I, P2 membranes of Sf9 cells, 1 μM histamine as agonist, Ki from IC50 by Cheng-Prusoff)",Ki [1],SMILES
< 1000 nM,–,"O=C(CN1CCn2ccnc2C1)N1CCN(C2CCC2)CC1 [Compound 83, 7-[2-(4-cyclobutylpiperazin-1-yl)-2-oxoethyl]-5,6,7,8-tetrahydroimidazo[1,2-a]pyrazine]"
–,< 1000 nM,"CS(=O)(=O)c1cccc(-c2ccc3c(c2)CCN(CC(=O)N2CCN(C4CCC4)CC2)C3)c1 [Compound 84, 2-[2-(4-cyclobutylpiperazin-1-yl)-2-oxoethyl]-6-[3-(methylsulfonyl)phenyl]-1,2,3,4-tetrahydroisoquinoline]"
–,< 1000 nM,"CNC(=O)c1ccc2c(c1)CCN(CC(=O)N1CCN(C3CCC3)CC1)C2 [Compound 85, 2-[2-(4-cyclobutylpiperazin-1-yl)-2-oxoethyl]-N-methyl-1,2,3,4-tetrahydroisoquinoline-6-carboxamide]"
–,< 1000 nM,"CCOC(=O)c1ccc2c(c1)CCN(CC(=O)N1CCN(C3CCC3)CC1)C2 [Compound 86, ethyl 2-[2-(4-cyclobutylpiperazin-1-yl)-2-oxoethyl]-1,2,3,4-tetrahydroisoquinoline-6-carboxylate]"
–,< 1000 nM,"CC1CCCN1C(=O)c1ccc2c(c1)CCN(CC(=O)N1CCN(C3CCC3)CC1)C2 (centres unmarked) [Compound 87, 2-[2-(4-cyclobutylpiperazin-1-yl)-2-oxoethyl]-6-[(2-methylpyrrolidin-1-yl)carbonyl]-1,2,3,4-tetrahydroisoquinoline]"
–,< 1000 nM,"O=C(NC1CCCC1)c1ccc2c(c1)CCN(CC(=O)N1CCN(C3CCC3)CC1)C2 [Compound 88, 2-[2-(4-cyclobutylpiperazin-1-yl)-2-oxoethyl]-N-cyclopentyl-1,2,3,4-tetrahydroisoquinoline-6-carboxamide]"
–,< 1000 nM,"O=C(CN1CCc2cc(C(=O)N3CCCC3)ccc2C1)N1CCN(C2CCC2)CC1 [Compound 89, 2-[2-(4-cyclobutylpiperazin-1-yl)-2-oxoethyl]-6-(pyrrolidin-1-ylcarbonyl)-1,2,3,4-tetrahydroisoquinoline]"
–,< 1000 nM,"O=C(CN1CCc2c(cnn2-c2ccc(Br)cc2)C1)N1CCN(C2CCC2)CC1 [Compound 90, 1-(4-bromophenyl)-5-[2-(4-cyclobutylpiperazin-1-yl)-2-oxoethyl]-4,5,6,7-tetrahydro-1H-pyrazolo[4,3-c]pyridine]"
–,< 1000 nM,"O=C(CN1CCc2n[nH]cc2C1)N1CCN(C2CCC2)CC1 [Compound 91, 5-[2-(4-cyclobutylpiperazin-1-yl)-2-oxoethyl]-4,5,6,7-tetrahydro-2H-pyrazolo[4,3-c]pyridine]"
–,< 1000 nM,"CC(=O)c1ccc(-n2ncc3c2CCN(CC(=O)N2CCN(C4CCC4)CC2)C3)cc1 [Compound 92, 1-(4-{5-[2-(4-cyclobutylpiperazin-1-yl)-2-oxoethyl]-4,5,6,7-tetrahydro-1H-pyrazolo[4,3-c]pyridin-1-yl}phenyl)ethanone]"
–,< 1000 nM,"N#Cc1ccc(-n2ncc3c2CCN(CC(=O)N2CCN(C4CCC4)CC2)C3)cc1 [Compound 93, 4-{5-[2-(4-cyclobutylpiperazin-1-yl)-2-oxoethyl]-4,5,6,7-tetrahydro-1H-pyrazolo[4,3-c]pyridin-1-yl}benzonitrile]"
–,< 1000 nM,"CC(=O)c1ccc(-n2cc3c(n2)CCN(CC(=O)N2CCN(C4CCC4)CC2)C3)cc1 [Compound 94, 1-(4-{5-[2-(4-cyclobutylpiperazin-1-yl)-2-oxoethyl]-4,5,6,7-tetrahydro-2H-pyrazolo[4,3-c]pyridin-2-yl}phenyl)ethanone]"
–,< 1000 nM,"COc1ccc(-c2ccc3c(c2)CCN(CC(=O)N2CCN(C4CCC4)CC2)C3)cn1 [Compound 95, 2-[2-(4-cyclobutylpiperazin-1-yl)-2-oxoethyl]-6-(6-methoxypyridin-3-yl)-1,2,3,4-tetrahydroisoquinoline]"
–,< 1000 nM,"CC(=O)c1ccc(-n2cc3c(n2)CCN(CC(=O)N2CCN(C4CCC4)CC2)C3)nc1 [Compound 96, 1-(6-{5-[2-(4-cyclobutylpiperazin-1-yl)-2-oxoethyl]-4,5,6,7-tetrahydro-2H-pyrazolo[4,3-c]pyridin-2-yl}pyridin-3-yl)ethanone]"
–,< 1000 nM,"O=C(CN1CCc2nc(Br)sc2C1)N1CCN(C2CCC2)CC1 [Compound 97, 2-bromo-5-[2-(4-cyclobutylpiperazin-1-yl)-2-oxoethyl]-4,5,6,7-tetrahydro[1,3]thiazolo [5,4-c]pyridine]"
–,< 1000 nM,"CC(=O)c1ccc(-c2nc3c(s2)CN(CC(=O)N2CCN(C4CCC4)CC2)CC3)cc1 [Compound 98, 1-(4-{5-[2-(4-cyclobutylpiperazin-1-yl)-2-oxoethyl]-4,5,6,7-tetrahydro[1,3]thiazolo [5,4-c]pyridin-2-yl}phenyl)ethanone]"
–,< 1000 nM,"CS(=O)(=O)c1cccc(-c2nc3c(s2)CN(CC(=O)N2CCN(C4CCC4)CC2)CC3)c1 [Compound 99, 5-[2-(4-cyclobutylpiperazin-1-yl)-2-oxoethyl]-2-[3-(methylsulfonyl)phenyl]-4,5,6,7-tetrahydro[1,3]thiazolo [5,4-c]pyridine]"
–,< 1000 nM,"COC(=O)c1ccc(-c2nc3c(s2)CN(CC(=O)N2CCN(C4CCC4)CC2)CC3)cc1 [Compound 100, methyl 4-{5-[2-(4-cyclobutylpiperazin-1-yl)-2-oxoethyl]-4,5,6,7-tetrahydro[1,3]thiazolo [5,4-c]pyridin-2-yl}benzoate]"
–,< 1000 nM,"CC(=O)c1ccc2c(c1)CCN(CC(=O)N1CCN(C3CCC3)CC1)CC2 [Compound 101, 1-{3-[2-(4-cyclobutylpiperazin-1-yl)-2-oxoethyl]-2,3,4,5-tetrahydro-1H-3-benzazepin-7-yl}ethanone]"
–,< 1000 nM,"N#Cc1nc2c(s1)CN(CC(=O)N1CCN(C3CCC3)CC1)CC2 [Compound 102, 5-[2-(4-cyclobutylpiperazin-1-yl)-2-oxoethyl]-4,5,6,7-tetrahydro[1,3]thiazolo [5,4-c]pyridine-2-carbonitrile]"
–,< 1000 nM,"CC(=O)c1nc2c(s1)CN(CC(=O)N1CCN(C3CCC3)CC1)CC2 [Compound 103, 1-{5-[2-(4-cyclobutylpiperazin-1-yl)-2-oxoethyl]-4,5,6,7-tetrahydro[1,3]thiazolo [5,4-c]pyridin-2-yl}ethanone]"
–,< 1000 nM,"O=C(CN1CCc2ccc(-c3cncnc3)cc2CC1)N1CCN(C2CCC2)CC1 [Compound 104, 3-[2-(4-cyclobutylpiperazin-1-yl)-2-oxoethyl]-7-pyrimidin-5-yl-2,3,4,5-tetrahydro-1H-3-benzazepine]"
–,< 1000 nM,"CS(=O)(=O)c1ccc(-c2nc3c(s2)CCN(CC(=O)N2CCN(C4CCC4)CC2)C3)cc1 [Compound 105, 5-[2-(4-cyclobutylpiperazin-1-yl)-2-oxoethyl]-2-[4-(methylsulfonyl)phenyl]-4,5,6,7-tetrahydro[1,3]thiazolo [4,5-c]pyridine]"
–,< 1000 nM,"CSc1nc2c(o1)CN(CC(=O)N1CCN(C3CCC3)CC1)CC2 [Compound 107, 5-[2-(4-cyclobutylpiperazin-1-yl)-2-oxoethyl]-2-(methylthio)-4,5,6,7-tetrahydro[1.3]oxazolo [5,4-c]pyridine]"
–,< 1000 nM,"O=C(CN1CCc2sc(Br)nc2C1)N1CCN(C2CCC2)CC1 [Compound 108, 2-bromo-5-[2-(4-cyclobutylpiperazin-1-yl)-2-oxoethyl]-4,5,6,7-tetrahydro[1,3] thiazolo [4,5-c]pyridine]"
–,< 1000 nM,"CC1CN(C(=O)CN2CCc3nc(Cl)sc3C2)CCN1C1CCC1 (centres unmarked) [Compound 109, 2-chloro-5-[2-(4-cyclobutyl-3-methylpiperazin-1-yl)-2-oxoethyl]-4,5,6,7-tetrahydro[1,3] thiazolo [5,4-c]pyridine]"
